Assay results published in patent EP0906100B1, “USE OF 5-HT 1A? RECEPTOR ANTAGONISTS FOR THE TREATMENT OF URINARY INCONTINENCE” (RECORDATI S.A., priority 1996, dated 1997).

Columns and labels:
[1] = system: pre-synaptic 5-HT1A receptor; experiment: Antagonism of hypothermia induced by 8-OH-DPAT in mice; type: in vivo; conditions: s.c., hypothermia induced by 0.5 mg/kg s.c. 8-OH-DPAT
Method: Antagonism of hypothermia induced by 8-OH-DPAT in mice:
The antagonistic effect of 5-HT1A receptor antagonists on hypothermia induced by 8-OH-DPAT was evaluated by the method of Moser (Moser, Eur. J. Pharmacol., 193, 165, 1991) with minor modifications.
Male CD-1 mice (28-38 g) obtained from Charles River (Italy) were housed in a climate-controlled room (temperature 22 ± 2°C; humidity 55 ± 15%) and maintained on a 12 h light/dark cycle with free access to food and water. On the day of experiment, mice were placed singly in clear plastic boxes under the same ambient conditions. Body temperature was measured by the insertion of a temperature probe (Termist TM-S, LSI) into the rectum to a depth of 2 cm. Rectal temperature was measured immediately prior to subcutaneous injection of the test compound and 30 min later. All animals then received 8-OH-DPAT (0.5 mg/kg s.c.) and their temperature was measured 30 min later. For each animal, temperature changes were calculated with respect to pretreatment values and the mean values were calculated for each treatment group.

5-HT1A receptor = molecular target: T1, 5-HT1A receptor (Rattus norvegicus, UniProt P19327); experiment: [3H]8-OH-DPAT binding (5HT1A receptors), rat hippocampi; conditions: 1 nM [3H]8-OH-DPAT, read-out: Binding affinity for the 5-HT1A receptor, Ki
T1 construct: Rat hippocampi were homogenized in 50 volumes of ice-cold 50 mM Tris-HCl pH 7.4; from tissue; host or cells: rat hippocampus membranes
T1 sequence (P19327 1-422): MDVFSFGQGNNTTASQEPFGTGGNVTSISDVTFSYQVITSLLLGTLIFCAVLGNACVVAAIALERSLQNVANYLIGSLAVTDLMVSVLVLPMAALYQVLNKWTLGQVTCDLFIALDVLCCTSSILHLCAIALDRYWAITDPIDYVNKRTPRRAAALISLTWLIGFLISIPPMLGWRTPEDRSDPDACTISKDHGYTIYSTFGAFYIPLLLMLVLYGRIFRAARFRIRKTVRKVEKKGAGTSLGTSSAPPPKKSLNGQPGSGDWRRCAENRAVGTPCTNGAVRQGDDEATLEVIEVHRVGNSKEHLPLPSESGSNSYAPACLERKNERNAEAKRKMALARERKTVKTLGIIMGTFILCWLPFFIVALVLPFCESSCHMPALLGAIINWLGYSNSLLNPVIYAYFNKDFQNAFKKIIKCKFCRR
Method: [^3H]8-OH-DPAT binding (5HT1A receptors):
Rat hippocampi were homogenized in 50 volumes of ice-cold 50 mM Tris-HCl pH 7.4. The homogenates were centrifuged at 48,000 x g for 10 minutes, and the pellets were resuspended in the same volume of ice-cold buffer, incubated for 10 minutes at 37°C, centrifuged and resuspended two more times. The final pellets obtained were resuspended in 100 volumes of 50 mM Tris-HCl, pH 7.4, containing 0.1 % ascorbic acid and 10 µM pargyline. 1 ml samples were incubated for 30 min at 25°C with 1 nM [^3H]8-OH-DPAT, in absence or presence of different concentrations (10^-5 to 10^-10 M) of the test compound. Non-specific binding was determined in the presence of 10 µM 5-HT. The incubations were terminated by rapid filtration through Whatman GF/B filters using a Brandel cell harvester, after which the filters were washed with 3 x 3 ml of ice-cold buffer. The radioactivity retained on the filters was determined by liquid scintillation counting.

[2] = system: cystometric parameters (bladder volume capacity, micturition pressure); experiment: Cystometric parameters (BVC, MP) in the conscious rat; type: in vivo, rats; conditions: for BVC before treatment / MP before treatment: baseline; for BVC before treatment / MP before treatment / BVC after treatment / MP after treatment: mean±S.E.
Method: Male Sprague Dawley rats (Crl: CD° BR) weighing 250-350 g were used. The animals were housed with free access to food and water and maintained on a forced 12 h alternating light-dark cycle at 22-24°C for at least one week, except during performance of the experiment.
An approximately 10 mm long midline incision was made in the shaved and cleaned abdominal wall. The urinary bladder was gently freed from adhering tissues, emptied, and then cannulated, via an incision at the dome, with a polyethylene cannula (Portex PP30), which was permanently sutured with silk thread. The cannula was exteriorized through a subcutaneous tunnel in the retroscapular area, where it was connected with a plastic adapter to avoid the risk of removal by the animal. For intravenous (i.v.) injection of test compounds, a PE 50 polyethylene tubing filled with physiological saline was inserted into the jugular vein and exteriorized in the retroscapular area.
Since cystometrographic parameters have been reported to be influenced by the time elapsed after catheter implantation […].
On the day of the experiment, the rats were placed in Bollman's cages; after a stabilization period of 20 min, the free tip of the bladder catheter was connected through a T-shaped tube to a pressure transducer (Bentley T 800/Marb P 82) and to a peristaltic pump (Gilson minipuls 2) for a continuous infusion, at the constant rate of 0.1 ml/min, of saline solution into the urinary bladder. The intraluminal pressure signal during infusion was continuously recorded on a polygraph (Battaglia Rangoni KO 380 with ADC1/T amplifier). Two urodynamic parameters were evaluated: bladder volume capacity (BVC) and micturition pressure (MP). BVC (in ml) is defined as the minimum volume infused after which detrusor contraction (followed by micturition) occurs. MP (in mmHg) is defined as the maximal intravesical pressure induced by the contraction of detrusor during micturition. Basal BVC and MP values were calculated as the means of the first two recorded cystometrograms. At this point, the infusion was interrupted and the test compounds were administered. Fifteen minutes after intravenous administration, or one hour after oral drug administration, two additional cystometrograms were recorded in each animal and the mean values of the two cystometrographic parameters were calculated.
The statistical significance of the differences in urodynamic parameter values was evaluated by Student's t test for paired data. Only changes showing a probability P<0.01 were considered to be significant.

[3] = 30 µg/kg i.v., 15 min after injection
[4] = 100 µg/kg i.v., 15 min after injection
[5] = 300 µg/kg i.v., 15 min after injection
[6] = 10 mg/kg p.o., 1 hour after oral administration
[7] = 30 mg/kg p.o., 1 hour after oral administration
[8] = conscious rats, i.v., NAN-190 up to the highest administrable dose of 300 µg/kg

With `COc1ccccc1N1CCN(CCCCN2C(=O)c3ccccc3C2=O)CC1` [NAN-190, 1-(2-methoxyphenyl)-4-[4-(2-phthalimido)-butyl]-piperazine] the “ID50 (95%) C.L., antagonistic activity for the pre-synaptic 5-HT1A receptor” value [1] was “not active”, the Ki (5-HT1A receptor) was 1.9 nM and the BVC before treatment ([2]; 30 µg/kg i.v. group) was 0.74 ± 0.09 mL. For the same molecule, the MP before treatment ([2]; 30 µg/kg i.v. group) was 99.4±10.1 mmHg, the BVC % change [2, 3] was “+6%” and the MP % change [2, 3] was “+5%”. The BVC after treatment [2, 3] was 0.78 ± 0.10 mL, the MP after treatment [2, 3] was 104.6±9.7 mmHg and the BVC before treatment ([2]; 100 µg/kg i.v. group) was 0.68 ± 0.10 mL. The MP before treatment ([2]; 100 µg/kg i.v. group) was 93.8±11.5 mmHg, the BVC % change [2, 4] was “+12%” and the MP % change [2, 4] was -12%. The BVC after treatment [2, 4] was 0.76 ± 0.10 mL, the MP after treatment [2, 4] was 82.5±9.2 mmHg and the BVC before treatment ([2]; 300 µg/kg i.v. group) was 0.62 ± 0.06 mL. The MP before treatment ([2]; 300 µg/kg i.v. group) was 86.6±10.3 mmHg, the BVC % change [2, 5] was -1% and the MP % change [2, 5] was “+2%”. It also gave a BVC after treatment [2, 5] of 0.61 ± 0.06 mL, an MP after treatment [2, 5] of 88.4±11.8 mmHg and a BVC before treatment ([2]; 10 mg/kg p.o. group) of 0.54 ± 0.08 mL. The MP before treatment ([2]; 10 mg/kg p.o. group) was 106.1±10.4 mmHg, the BVC % change [2, 6] was -14% and the MP % change [2, 6] was -14%. It also gave a BVC after treatment [2, 6] of 0.46 ± 0.07 mL, an MP after treatment [2, 6] of 90.8±12.5 mmHg and a BVC before treatment ([2]; 30 mg/kg p.o. group) of 0.71 ± 0.09 mL. It also gave an MP before treatment ([2]; 30 mg/kg p.o. group) of 105.1±10.5 mmHg, a BVC % change [2, 7] of -15% and an MP % change [2, 7] of -9%. The BVC after treatment [2, 7] was 0.60 ± 0.09 mL, the MP after treatment [2, 7] was 95.8±15.3 mmHg and the “effect on BVC (in words)” value [2, 8] was “devoid of significant effects”. The “effect on MP (in words)” value [2, 8] was “devoid of significant effects” and the “activity on cystometric parameters after oral administration (in words)” value ([2]; conscious rats, oral, doses up to 30 mg/kg) was “inactive”.
